Measurements reported in patent publication US11136296B2, “Substituted N-arylethyl-2-arylquinoline-4-carboxamides and use thereof” (Bayer Aktiengesellschaft, priority 2017, dated 2021).

What was measured:
[1] = test system: fluprostenol-induced mechanical sensitivity; experiment: Effects of FP antagonists on mechanical sensitivity (von Frey test, fluprostenol-induced mechanical allodynia); type: in vivo, mouse; conditions: for 50% Paw Response Threshold, mean: Ex. 153 90 mg/kg PO, male ND4 mice; for effect on 50% Paw Response Thresholds compared to vehicle-treated animals: group treated with […] fluprostenol, oral 90 mg/kg
Experimental: B-24. Effects of FP Antagonists on Mechanical Sensitivity (Peripheral, Mouse)
Mechanical allodynia was examined using the von Frey test on the injected and uninjected rear paws several times after the injection.
Mechanical allodynia was measured with […] (Stölting©; Wood Dale, Ill., USA) having different stiffness (0.04; 0.07; 0.16; 0.4; 1.0. 4.0 and 8.0 g) by the up-down method (Chaplan et al., J. Neurosci. Meth. 1994, 53, 56-63). Intact male ND4 mice (30 g, 10 animals per group) were placed in individual acrylic chambers on a metal grid surface, and were allowed to get used to their environment for at least 15 minutes before the testing. Each filament was pressed with sufficient force at right angles to the underside of the paw, in order to cause slight bending against the paw, and was held for about 6 seconds or until a positive response was registered (paw quickly withdrawn). The testing was commenced with the 0.4 g filament. If the paw was not withdrawn, the next strongest stimulus was used. In the case that the paw was withdrawn, the next weakest stimulus was used. This process was repeated until up to 4 responses had been obtained after the initial change in response (no response after positive response or positive response after no response). […] The 50% paw response threshold was calculated using the following formula:
[formula] • Xf=value (in logarithmic units) of the last von Frey filament used • k=table value for the pattern of positive/negative responses (see Chaplan et al., J. Neurosci. Meth. 1994, 53, 56-63, Annex 1, page 62) • δ=average difference (in logarithmic units) between the stimuli
The mean and […] of the mean (SEM) was determined for each paw for each treatment group at each time point.
In order to assess the analgesic effect of an FP antagonist on fluprostenol-induced mechanical sensitivity, the test substance from Ex. 153 (90 mg/kg) was administered 2 hours before and 8 and 22 hours after the injection of fluprostenol. Ipsilateral and contralateral 50% paw response thresholds were examined prior to the administration of fluprostenol and 0.5, 2, 6 and 24 h after the administration.

FP receptor = FP receptor (Homo sapiens (Human), UniProt P43088); experiment: In vitro test of inhibition of human FP receptor activity (PGF2α-induced calcium flux in FP-expressing CHEM1 cells); type: cell-based; conditions: PGF2α-induced (2 nM) calcium flux in FP-expressing CHEM1 cells; some as mean values from multiple determinations
From the text: Table 1 below lists the IC50 values from this assay for individual working examples of the invention (some as mean values from multiple independent individual determinations): […]

Sequence of FP receptor (P43088 whole entry): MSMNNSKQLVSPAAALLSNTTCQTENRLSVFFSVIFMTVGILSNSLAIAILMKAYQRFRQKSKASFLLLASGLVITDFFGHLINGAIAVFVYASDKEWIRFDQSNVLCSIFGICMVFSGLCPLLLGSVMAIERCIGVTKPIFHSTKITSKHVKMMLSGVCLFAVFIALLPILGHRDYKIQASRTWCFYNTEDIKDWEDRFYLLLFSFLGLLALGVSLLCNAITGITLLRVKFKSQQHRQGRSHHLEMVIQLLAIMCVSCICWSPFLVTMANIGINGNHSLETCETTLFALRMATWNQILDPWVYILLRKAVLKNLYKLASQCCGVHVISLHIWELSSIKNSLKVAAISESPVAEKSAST

SMILES	IC50 (FP receptor)	further results
Cc1c(-c2ccccc2)nc2ccc(Br)cc2c1C(=O)NCC(CCC(=O)O)c1ccccc1Cl (single isomer, unassigned; (+)) [Ex. 153, (+)-5-{[(6-Bromo-3-methyl-2-phenylquinolin-4-yl)carbonyl]amino}-4-(2-chlorophenyl)pentanoic Acid]	9 nM	50% Paw Response Threshold, mean ([1]; Group 2: fluprostenol ~[…] IPL, 0.5 h): 2.65 g; 50% Paw Response Threshold, mean ([1]; Group 2: fluprostenol ~[…] IPL, 2 h): 2.403 g; 50% Paw Response Threshold, mean ([1]; Group 2: fluprostenol ~[…] IPL, 6 h): 1.89 g; 50% Paw Response Threshold, mean ([1]; Group 2: fluprostenol ~[…] IPL, 24 h): 3.245 g; 50% Paw Response Threshold, mean ([1]; Group 2: fluprostenol ~[…] IPL, BL (baseline)): 4.421 g; 50% Paw Response Threshold, mean ([1]; Group 4: fluprostenol ~[…] IPL, 0.5 h): 0.728 g; 50% Paw Response Threshold, mean ([1]; Group 4: fluprostenol ~[…] IPL, 2 h): 0.716 g; 50% Paw Response Threshold, mean ([1]; Group 4: fluprostenol ~[…] IPL, 6 h): 1.57 g; 50% Paw Response Threshold, mean ([1]; Group 4: fluprostenol ~[…] IPL, 24 h): 1.683 g; 50% Paw Response Threshold, mean ([1]; Group 4: fluprostenol ~[…] IPL, BL (baseline)): 4.215 g; effect on 50% Paw Response Thresholds compared to vehicle-treated animals ([1]; 0.5 hours after the fluprostenol injection): increased the “50% Paw Response Thresholds” 0.5 hours after the fluprostenol injection significantly; effect on 50% Paw Response Thresholds compared to vehicle-treated animals ([1]; 24 hours after the fluprostenol injection): increased the “50% Paw Response Thresholds” 24 hours after the fluprostenol injection significantly
Cc1c(-c2ccccc2)nc2ccc(Br)cc2c1C(=O)NCC(CCC(=O)O)c1ccccc1OC(F)(F)F (single isomer, unassigned; (-)) [Example 211, (−)-5-{[(6-Bromo-3-methyl-2-phenylquinolin-4-yl)carbonyl]amino}-4-[2-(trifluoromethoxy)phenyl]pentanoic Acid]	1.7 nM	
O=C(O)CCC(CNC(=O)c1c(Cl)c(-c2ccccc2)nc2ccc(Br)cc12)c1ccccc1Cl (single isomer, unassigned; (-)) [Example 213, (−)-5-{[(6-Bromo-3-chloro-2-phenylquinolin-4-yl)carbonyl]amino}-4-(2-chlorophenyl)pentanoic Acid]	2.8 nM	
O=C(O)CCC(CNC(=O)c1c(Cl)c(-c2ccccc2)nc2ccc(Br)cc12)c1ccccc1C(F)(F)F (single isomer, unassigned; (-)) [Example 216, (−)-5-{[(6-Bromo-3-chloro-2-phenylquinolin-4-yl)carbonyl]amino}-4-[2-(trifluoromethyl)phenyl]pentanoic Acid]	5 nM	
C#Cc1ccc2nc(-c3ccccc3)c(C)c(C(=O)NCC(CCC(=O)O)c3ccccc3Cl)c2c1 (single isomer, unassigned; (-)) [Example 219, (−)-4-(2-Chlorophenyl)-5-{[(6-ethynyl-3-methyl-2-phenylquinolin-4-yl)carbonyl]amino}pentanoic Acid]	10 nM	
O=C(O)CCC(CNC(=O)c1c(Cl)c(-c2ccccc2)nc2ccc(Br)cc12)c1c(F)ccc(F)c1Cl (single isomer, unassigned; (-)) [Example 222, (−)-5-{[(6-Bromo-3-chloro-2-phenylquinolin-4-yl)carbonyl]amino}-4-(2-chloro-3,6-difluorophenyl)pentanoic Acid]	0.96 nM	
Cc1c(-c2ccccc2)nc2ccc(Br)cc2c1C(=O)NCC(CCC(=O)O)c1c(F)cccc1C(F)(F)F (single isomer, unassigned; (-)) [Example 227, (−)-5-{[(6-Bromo-3-methyl-2-phenylquinolin-4-yl)carbonyl]amino}-4-[2-fluoro-6-(trifluoromethyl)phenyl]pentanoic Acid]	1.6 nM	
Cc1c(-c2ccccc2)nc2ccc(Br)cc2c1C(=O)NCC(CCC(=O)O)c1c(F)c(F)cc(F)c1F (single isomer, unassigned; (-)) [Example 229, (−)-5-{[(6-Bromo-3-methyl-2-phenylquinolin-4-yl)carbonyl]amino}-4-(2,3,5,6-tetrafluorophenyl)pentanoic Acid]	2.7 nM	
Cc1c(-c2ccccc2)nc2ccc(Br)cc2c1C(=O)NCC(CCC(=O)O)c1c(Cl)ccc(Cl)c1Cl (single isomer, unassigned; (-)) [Example 236, (−)-5-{[(6-Bromo-3-methyl-2-phenylquinolin-4-yl)carbonyl]amino}-4-(2,3,6-trichlorophenyl)pentanoic Acid]	2 nM	
Cc1c(-c2ccccc2)nc2ccc(Br)cc2c1C(=O)NCC(C)(CCCC(=O)O)c1ccccc1Cl (single isomer, unassigned; (-)) [Example 241, (−)-6-{[(6-Bromo-3-methyl-2-phenylquinolin-4-yl)carbonyl]amino}-5-(2-chlorophenyl)-5-methylhexanoic Acid]	68 nM	
Cc1c(-c2ccccc2)nc2ccc(Br)cc2c1C(=O)NCC(C)(CCCC(=O)O)c1ccccc1 (single isomer, unassigned; (-)) [Example 244, (−)-6-{[(6-Bromo-3-methyl-2-phenylquinolin-4-yl)carbonyl]amino}-5-methyl-5-phenylhexanoic Acid]	20 nM	
COc1ccccc1C(CNC(=O)c1c(C)c(-c2ccccc2)nc2ccc(Br)cc12)N1CCC(C(=O)O)C1 (stereo not drawn) [Example 246, 1-[2-{[(6-Bromo-3-methyl-2-phenylquinolin-4-yl)carbonyl]amino}-1-(2-methoxyphenyl)ethyl]pyrrolidine-3-carboxylic Acid]	94 nM	
COc1ccccc1[C@H](CNC(=O)c1c(C)c(-c2ccccc2)nc2ccc(Br)cc12)N1CCC(C(=O)O)C1 (stereo partly drawn) [compound 247]	7.2 nM	
COc1ccccc1[C@@H](CNC(=O)c1c(C)c(-c2ccccc2)nc2ccc(Br)cc12)N1CCC(C(=O)O)C1 (stereo partly drawn) [compound 248]	13 nM	
Cc1c(-c2ccccc2)nc2ccc(Br)cc2c1C(=O)NCC(CCC(=O)O)c1ccccc1F (stereo not drawn) [compound 252]	14 nM	
